Molecular target: T1, PLK4 (Homo sapiens, UniProt O00444)
T1 sequence (O00444 1-970): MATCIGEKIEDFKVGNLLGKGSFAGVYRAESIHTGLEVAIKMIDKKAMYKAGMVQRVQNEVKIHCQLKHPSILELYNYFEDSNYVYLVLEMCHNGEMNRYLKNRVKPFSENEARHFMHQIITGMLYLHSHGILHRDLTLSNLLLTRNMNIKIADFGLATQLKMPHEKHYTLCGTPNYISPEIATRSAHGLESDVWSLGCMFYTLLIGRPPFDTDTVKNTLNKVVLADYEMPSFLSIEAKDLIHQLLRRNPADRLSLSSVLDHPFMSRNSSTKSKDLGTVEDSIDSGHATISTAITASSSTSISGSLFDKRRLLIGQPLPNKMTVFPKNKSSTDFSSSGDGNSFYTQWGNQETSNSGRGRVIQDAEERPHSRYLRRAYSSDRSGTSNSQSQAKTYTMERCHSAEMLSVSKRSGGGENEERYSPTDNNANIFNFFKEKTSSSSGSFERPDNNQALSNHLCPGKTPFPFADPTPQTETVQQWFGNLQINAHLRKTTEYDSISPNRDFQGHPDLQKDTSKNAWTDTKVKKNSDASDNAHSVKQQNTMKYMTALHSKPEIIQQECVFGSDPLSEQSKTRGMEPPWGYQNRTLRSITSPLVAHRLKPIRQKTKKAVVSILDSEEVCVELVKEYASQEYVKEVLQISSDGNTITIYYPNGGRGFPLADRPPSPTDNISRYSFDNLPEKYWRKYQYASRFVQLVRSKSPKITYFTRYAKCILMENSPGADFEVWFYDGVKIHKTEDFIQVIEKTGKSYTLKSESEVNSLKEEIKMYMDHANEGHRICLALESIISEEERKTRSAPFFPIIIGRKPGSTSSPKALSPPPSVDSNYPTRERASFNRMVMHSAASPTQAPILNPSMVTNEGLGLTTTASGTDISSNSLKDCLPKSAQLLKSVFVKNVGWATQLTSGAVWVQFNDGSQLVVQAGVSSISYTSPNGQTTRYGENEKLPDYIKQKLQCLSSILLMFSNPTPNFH
Assay: Activity (IC50) of the Table 1 compounds as PLK4 inhibitors
Format: biochemical
Settings: Table 1, IC50 class

IC50	SMILES
< 100 nM	CC(=O)Nc1ccc(Sc2nc(Nc3cc(C)[nH]n3)c(C)c(N3CCCCC3)n2)cc1
< 100 nM	COCCN(C)c1nc(Sc2ccc(NC(C)=O)cc2)nc(Nc2cc(C)[nH]n2)c1C
< 100 nM	COCCNc1nc(Sc2ccc(NC(C)=O)cc2)nc(Nc2cc(C)[nH]n2)c1C
< 100 nM	COc1c(Nc2cc(C)[nH]n2)nc(Sc2ccc(NC(=O)C3CCCC3)cc2)nc1N1CCOCC1
< 100 nM	COc1c(Nc2cc(C)[nH]n2)nc(Sc2ccc(NC(=O)C3CCCC3)cc2)nc1N(C)C
< 100 nM	COc1c(Nc2cc(C)[nH]n2)nc(Sc2ccc(NC(C)=O)cc2)nc1N1CCN(CCN)CC1
< 100 nM	CCN(CC)CCN1CCN(c2nc(Sc3ccc(NC(C)=O)cc3)nc(Nc3cc(C)[nH]n3)c2OC)CC1
< 100 nM	COc1c(Nc2cc(C)[nH]n2)nc(Sc2ccc(NC(C)=O)cc2)nc1N1CCN(CCN2CCNCC2)CC1
< 100 nM	COc1c(Nc2cc(C)[nH]n2)nc(Sc2ccc(NC(C)=O)cc2)nc1N1CCC(CC(=O)O)CC1
< 100 nM	COc1c(Nc2cc(C)[nH]n2)nc(Sc2ccc(NC(C)=O)cc2)nc1N1CCN(CCN2CCN(C)CC2)CC1
< 100 nM	COC(=O)CC1CCN(c2nc(Sc3ccc(NC(C)=O)cc3)nc(Nc3cc(C)[nH]n3)c2OC)CC1
< 100 nM	COc1c(Nc2cc(C)[nH]n2)nc(Sc2ccc(NC(C)=O)cc2)nc1N1CCN(C(N)=O)CC1
< 100 nM	COc1c(Nc2cc(C)[nH]n2)nc(Sc2ccc(NC(C)=O)cc2)nc1N1CCN(CC(=O)O)CC1
< 100 nM	COc1c(Nc2cc(C)[nH]n2)nc(Sc2ccc(NC(C)=O)cc2)nc1N1CC2CCC(C1)N2CCN(C)C
< 100 nM	COc1c(Nc2cc(C)[nH]n2)nc(Sc2ccc(NC(C)=O)cc2)nc1N1CCC(CC(N)=O)CC1
< 100 nM	COc1c(Nc2cc(C)[nH]n2)nc(Sc2ccc(NC(C)=O)cc2)nc1N1CCN(C(=N)NO)CC1
< 100 nM	COc1c(Nc2cc(C)[nH]n2)nc(Sc2ccc(NC(C)=O)cc2)nc1N1CCN(CCN(C)OC)CC1
< 100 nM	COc1c(Nc2cc(C)[nH]n2)nc(Sc2ccc(NC(C)=O)cc2)nc1N1CCN(CCNC(N)=O)CC1
< 100 nM	COc1c(Nc2cc(C)[nH]n2)nc(Sc2ccc(NC(C)=O)cc2)nc1N1CC(C)N(CCN(C)C)C(C)C1 (stereo not shown)
< 100 nM	COc1c(Nc2cc(C)[nH]n2)nc(Sc2ccc(NC(C)=O)cc2)nc1N1CCN(C(=N)N)CC1
< 100 nM	COC(=O)CN1CCN(c2nc(Sc3ccc(NC(C)=O)cc3)nc(Nc3cc(C)[nH]n3)c2OC)CC1
< 100 nM	COc1c(Nc2cc(C)[nH]n2)nc(Sc2ccc(NC(C)=O)cc2)nc1N1CCN(CCN2CCCCCC2)CC1
< 100 nM	COc1c(Nc2cc(C)[nH]n2)nc(Sc2ccc(NC(C)=O)cc2)nc1N1CCN(CCNC(=N)N)CC1
< 100 nM	COC(=O)c1ccc(Sc2nc(Nc3cc(C)[nH]n3)c(OC)c(N3CCN(CCN(C)C)CC3)n2)cc1

IC50	SMILES
100 to 1000 nM	COc1c(Nc2cc(C)[nH]n2)nc(Sc2ccc(NC(C)=O)cc2)nc1C1CCN(CCN(C)C)CC1
< 100 nM	COc1c(Nc2cc(C)[nH]n2)nc(Sc2ccc(NC(C)=O)cc2)nc1N1CCC(CC(=O)N(C)C)CC1
< 100 nM	COc1c(Nc2cc(C)[nH]n2)nc(Sc2ccc(NC(C)=O)cc2)nc1N1CCN(CC(=O)N2CCCCC2)CC1
< 100 nM	COc1c(Nc2cc(C)[nH]n2)nc(Sc2ccc(NC(C)=O)cc2)nc1N1CC2CCC(C1)N2CCN1CCN(C)CC1
< 100 nM	COc1c(Nc2cc(C)[nH]n2)nc(Sc2ccc(NC(C)=O)cc2)nc1N1CCN(CCN(C)C)CC1
< 100 nM	COc1c(Nc2cc(C)[nH]n2)nc(Sc2ccc(C(=O)N(C)C)cc2)nc1N1CCN(CCN(C)C)CC1
< 100 nM	COc1c(Nc2cc(C)[nH]n2)nc(Sc2ccc(S(C)(=O)=O)cc2)nc1N1CCN(CCN(C)C)CC1
< 100 nM	CNC(=O)c1ccc(Sc2nc(Nc3cc(C)[nH]n3)c(OC)c(N3CCN(CCN(C)C)CC3)n2)cc1
< 100 nM	COc1c(Nc2cc(C)[nH]n2)nc(Sc2ccc(NC(C)=O)cc2)nc1N1CCN(CCN(C)Cc2ccccc2)CC1
< 100 nM	COc1c(Nc2cc(C)[nH]n2)nc(Sc2ccc(NC(C)=O)cc2)nc1N1CCN(CCN(C)c2ccccc2)CC1
< 100 nM	COc1c(Nc2cc(C)[nH]n2)nc(Sc2ccc(NC(C)=O)cc2)nc1N1CCN(CCN2C3CCCC2CC3)CC1
< 100 nM	COc1c(Nc2cc(C)[nH]n2)nc(Sc2ccc([S+](C)[O-])cc2)nc1N1CCN(CCN(C)C)CC1 (stereo not shown)
< 100 nM	COc1c(Nc2cc(C)[nH]n2)nc(Sc2ccc(NC(C)=O)cc2)nc1N1CC2CCC(C1)N2CCN1CCCCCCC1
< 100 nM	COc1c(Nc2cc(C)[nH]n2)nc(Sc2ccc(NC(C)=O)cc2)nc1N1CCN(CCS(C)(=O)=O)CC1
< 100 nM	COc1c(Nc2cc(C)[nH]n2)nc(Sc2ccc(NC(C)=O)cc2)nc1N1CCN(CCN2C3CCCC2CCC3)CC1
< 100 nM	COc1c(Nc2ncc(C)s2)nc(Sc2ccc(NC(C)=O)cc2)nc1N1CCN(CCN(C)C)CC1
< 100 nM	CC(=O)Nc1ccc(Sc2nc(Nc3cc(C)[nH]n3)c(C)c(C3CCN(CCN(C)C)CC3)n2)cc1
< 100 nM	COc1c(Nc2cc(C)[nH]n2)nc(Sc2ccc(S(C)(=O)=O)cc2)nc1N1CCN(CCN2CCN(C)CC2)CC1
< 100 nM	COc1c(Nc2cc(C)[nH]n2)nc(Sc2ccc(NS(C)(=O)=O)cc2)nc1N1CCN(CCN(C)C)CC1
< 100 nM	CCS(=O)(=O)c1ccc(Sc2nc(Nc3cc(C)[nH]n3)c(OC)c(N3CCN(CCN(C)C)CC3)n2)cc1
< 100 nM	COc1c(Nc2cc(C)[nH]n2)nc(Sc2ccc(S(=O)(=O)C(F)(F)F)cc2)nc1N1CCN(CCN(C)C)CC1
< 100 nM	COc1c(Nc2cc(C)[nH]n2)nc(Sc2ccc(S(=O)(=O)N(C)C)cc2)nc1N1CCN(CCN(C)C)CC1
< 100 nM	COc1c(Nc2cc(C)[nH]n2)nc(Sc2ccc(S(=O)(=O)Cc3ccccc3)cc2)nc1N1CCN(CCN(C)C)CC1
< 100 nM	COc1c(Nc2cc(C)[nH]n2)nc(Sc2ccc(S(=O)(=O)COCc3ccccc3)cc2)nc1N1CCN(CCN(C)C)CC1

IC50	SMILES
< 100 nM	COc1c(Nc2ncc(C)s2)nc(Sc2ccc(S(C)(=O)=O)cc2)nc1N1CCN(CCN(C)C)CC1
100 to 1000 nM	COc1c(Nc2cc(C)[nH]n2)nc(Sc2ccc(NC(C)=O)cc2)nc1C1CCN(CCN2CCN(C)CC2)CC1
< 100 nM	COc1c(Nc2cc(C)[nH]n2)nc(Sc2ccc(S(=O)(=O)CCO)cc2)nc1N1CCN(CCN(C)C)CC1
< 100 nM	CCCS(=O)(=O)c1ccc(Sc2nc(Cc3cc(C)[nH]n3)c(OC)c(N3CCN(CCN(C)C)CC3)n2)cc1
< 100 nM	CCS(=O)(=O)c1ccc(Sc2nc(Nc3cc(C)[nH]n3)c(OC)c(N3CCC(CCN(C)C)CC3)n2)cc1
< 100 nM	COc1c(Nc2cc(C)[nH]n2)nc(Sc2ccc(S(=O)(=O)CC(C)C)cc2)nc1N1CCN(CCN(C)C)CC1
< 100 nM	CCS(=O)(=O)c1ccc(Sc2nc(Nc3cc(C)[nH]n3)c(OC)c(N3CCN(CCN4CCN(C)CC4)CC3)n2)cc1
< 100 nM	COc1c(Nc2cc(C)[nH]n2)nc(Sc2ccc(S(=O)(=O)C(C)C)cc2)nc1N1CCN(CCN(C)C)CC1
< 100 nM	COc1c(Nc2cc(C)[nH]n2)nc(Sc2ccc(S(=O)(=O)Cc3ccc(F)cc3)cc2)nc1N1CCN(CCN(C)C)CC1
< 100 nM	COc1ccc(CS(=O)(=O)c2ccc(Sc3nc(Nc4cc(C)[nH]n4)c(OC)c(N4CCN(CCN(C)C)CC4)n3)cc2)cc1
< 100 nM	COc1c(Nc2cc(C)[nH]n2)nc(Sc2ccc(S(=O)(=O)Cc3ccccc3Cl)cc2)nc1N1CCN(CCN(C)C)CC1
< 100 nM	COc1c(Nc2cc(C)[nH]n2)nc(Sc2ccc(S(=O)(=O)Cc3cccc(Cl)c3)cc2)nc1N1CCN(CCN(C)C)CC1
< 100 nM	COc1c(Nc2cc(C)[nH]n2)nc(Sc2ccc(S(=O)(=O)Cc3ccncc3)cc2)nc1N1CCN(CCN(C)C)CC1
< 100 nM	COc1c(Nc2cc(C)[nH]n2)nc(Sc2ccc(S(=O)(=O)Cc3ccccc3)cc2)nc1N1CCC(CCN(C)C)CC1
< 100 nM	COc1c(Nc2cc(C)[nH]n2)nc(Sc2ccc(S(=O)(=O)Cc3ccccc3)cc2)nc1N1CCN(C)CC1
< 100 nM	CCS(=O)(=O)c1ccc(Sc2nc(Nc3cc(C)[nH]n3)c(OC)c(N3CCN(C)CC3)n2)cc1
< 100 nM	COc1c(Nc2cc(C)[nH]n2)nc(Sc2ccc(S(=O)(=O)Cc3cccnc3)cc2)nc1N1CCN(CCN(C)C)CC1
< 100 nM	COc1c(Nc2cc(C)[nH]n2)nc(Sc2ccc(S(=O)(=O)Cc3ccc(Cl)cc3)cc2)nc1N1CCN(CCN(C)C)CC1
< 100 nM	COc1c(Nc2cc(C)[nH]n2)nc(Sc2ccc(S(=O)(=O)Cc3ccccc3)cc2)nc1N1CCN(CCN2C3CCCC2CCC3)CC1
< 100 nM	COc1c(Nc2cc(C)[nH]n2)nc(Sc2ccc(S(=O)(=O)Cc3cccs3)cc2)nc1N1CCN(CCN(C)C)CC1
< 100 nM	CCS(=O)(=O)c1ccc(Sc2nc(Nc3cc(C)[nH]n3)c(OC)c(N3CCNCC3)n2)cc1
< 100 nM	COc1c(Nc2cc(C)[nH]n2)nc(Sc2ccc(S(=O)(=O)Cc3nccs3)cc2)nc1N1CCN(CCN(C)C)CC1

Source: patent US11612604B2, “Methods of treating cancer with PLK4 inhibitors” (LUDWIG INSTITUTE FOR CANCER RESEARCH LTD, priority 2017, dated 2023)
